Data from ChEMBL document CHEMBL1155614, “CR377, a new pentaketide antifungal agent isolated from an endophytic fungus” (2000).
Calls of active or inactive are those of the source. The rule behind the calls is not given here.

Tests used:
Candida albicans [1] = experiment: Antimicrobial activity against Candida albicans wisconsin at 30 ug by agar diffusion method; assay type: functional
Candida albicans [2] = experiment: Antimicrobial activity against Candida albicans 109 at 30 ug by agar diffusion method; assay type: functional
Saccharomyces cerevisiae = experiment: Antimicrobial activity against Saccharomyces cerevisiae at 30 ug by agar diffusion method; assay type: functional, organism-based

C=C1C(O)=C(C(=O)C(C)CC)C(=O)OC1C (stereo unspecified) was tested, and the zone of inhibition at 30 µg/disc (Candida albicans [1]; read-out: IZ) was 20 mm, the zone of inhibition at 30 µg/disc (Candida albicans [2]; read-out: IZ) was 24 mm and the Activity (Saccharomyces cerevisiae) was “inactive”.

NYSTATIN was tested, and the inhibition zone (IZ) (Candida albicans [1]) was 19 mm, the inhibition zone (IZ) (Candida albicans [2]) was 22 mm and the inhibition zone (IZ) (Saccharomyces cerevisiae) was 21 mm.
